Assay results as given in PubChem BioAssay (NCI).
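Tested at 5 concentrations; 48 h exposure; 96-well plates; endpoints linearly interpolated, else capped at highest concentration. Definition used: TGI = concentration required for complete inhibition of growth.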

Columns and labels:
Experiment in all cases: growth of human tumour cells (NCI), 48 h
[1] = tested on: HL-60(TB) leukemia
[2] = tested on: HOP-62 NSCLC
[3] = tested on: MALME-3M melanoma
[4] = tested on: MDA-MB-231 breast
[5] = tested on: NCI-H226 lung
[6] = tested on: NCI/ADR-RES ovarian
[7] = tested on: OVCAR-4 ovarian
[8] = tested on: OVCAR-5 ovarian
[9] = tested on: OVCAR-8 ovarian
[10] = tested on: RPMI-8226 leukemia
[11] = tested on: SK-MEL-2 melanoma
[12] = tested on: U251 CNS
[13] = tested on: UACC-62 melanoma

| SMILES | TGI [1] [µM] | TGI [2] [µM] | TGI [3] [µM] | TGI [4] [µM] | TGI [5] [µM] | TGI [6] [µM] | TGI [7] [µM] | TGI [8] [µM] | TGI [9] [µM] | TGI [10] [µM] | TGI [11] [µM] | TGI [12] [µM] | TGI [13] [µM] |
| --- | --- | --- | --- | --- | --- | --- | --- | --- | --- | --- | --- | --- | --- |
| Clc1ccc(-c2nc3ccc(C45CC6CC(CC(C6)C4)C5)cc3[nH]2)cc1 | > 100 | > 77 | > 100 | > 100 | > 100 | > 100 | > 100 | > 100 | > 100 | > 100 | > 100 | > 100 | > 100 |
| CCCCCCCCCC1CC(=O)NCC(=O)NC(C(C)C)C(=O)NC(CC(C)C)C(=O)NC(C)C(=O)NC(C(C)C)C(=O)O1 (stereo not drawn) | > 100 | 55 | > 61.9 | > 38.6 | > 69.1 | > 100 | 25.4 | > 64 | 18.2 | > 86.8 | > 65.8 | 29.7 | 83.7 |
| CN(C)c1ccc(N=Nc2cccc3ncccc23)cc1 | 35.9 | > 100 | > 100 | > 100 | > 100 | > 100 | > 100 | – | > 100 | > 68.1 | > 100 | > 100 | > 100 |
| O=C1C(=C(C(=O)c2ccccc2)C(=O)c2ccccc2)OC(c2ccccc2)=C1C(=O)c1ccccc1 | 30.8 | 15.6 | 39.4 | 32.2 | 16.4 | 24.5 | 9.2 | 50.4 | 15.7 | 24.9 | 28.3 | > 100 | 22.8 |
| COc1ccc(/C=C2\CN(C)CC3C2=NC(=S)NC3c2ccc(OC)cc2)cc1 (stereo not drawn) | 14.8 | > 100 | > 31.4 | > 59.1 | > 100 | 19.1 | > 70.8 | > 86 | > 100 | > 24.7 | > 64.8 | > 52.6 | > 100 |
| Clc1ccc(-c2nnc(C34CC5CC(CC(C5)C3)C4)o2)cc1 | > 100 | > 100 | > 100 | > 100 | > 100 | > 100 | > 100 | > 100 | > 100 | > 100 | > 100 | > 100 | > 100 |
| O=[N+]([O-])c1ccc(NC(=S)Nc2ccccn2)cc1 | > 73.7 | 44.8 | > 100 | > 100 | > 64.2 | > 100 | > 100 | > 100 | > 100 | > 100 | > 100 | > 100 | > 100 |
| CC(C)c1nc2c(Cl)c3ncccc3cc2[nH]c1=O | > 100 | > 100 | > 100 | > 100 | > 100 | > 100 | > 100 | > 100 | > 100 | > 100 | > 100 | > 100 | > 100 |
| COC(=O)/C=C(/C(=O)OC)c1c(C)cc2c(C)cc(C)cc(C)c1-2 | > 100 | 37.9 | > 65.5 | 15.3 | 61.6 | > 64.6 | > 100 | > 78.8 | > 86.6 | > 100 | > 77.1 | 25.5 | > 66.5 |
| NS(=O)(=O)c1nnc(/N=C(/CCC(=O)O)C(=O)O)s1 | > 100 | > 100 | > 100 | > 100 | > 100 | > 100 | > 100 | > 100 | > 100 | > 100 | > 100 | > 100 | > 100 |
| CCSC(=O)/C=C1\CN(C(=O)OC(C)(C)C)C1C(=O)OC(C)(C)C (stereo not drawn) | 4.42 | 28.9 | 4.42 | 12.7 | 27.5 | > 23.7 | 7.44 | 14.3 | 7.85 | 4.77 | 18.4 | 19.2 | 10.6 |
| O/N=C1\CCc2cc3c(cc21)CCC3 | > 100 | > 100 | > 100 | > 100 | > 100 | > 100 | > 100 | > 100 | > 100 | > 100 | > 100 | > 100 | > 100 |
| O=CC1C[C@@H](N2C(=O)O[C@@H](c3ccccc3)[C@H]2c2ccccc2)[C@@H]1COCc1ccccc1 (stereo partly drawn) | 56.7 | 44.5 | 31.5 | 30.7 | 42.2 | 83.6 | > 100 | 52.3 | 55.9 | > 100 | 30.8 | 30.1 | 39.9 |
| Cc1ccc(/C(O)=C/c2nc3ccccc3[nH]c2=O)c(C)c1 | > 100 | 34.3 | 98.8 | > 46.6 | 37 | 55.6 | 6.17 | > 100 | 25.4 | > 100 | > 80.4 | 36.7 | 43.7 |
| CCOC(=O)c1nc2ccccc2nc1Oc1ccc(OC)cc1 | > 100 | > 100 | > 100 | > 100 | > 100 | > 100 | > 100 | > 100 | > 100 | > 100 | > 100 | > 100 | > 100 |
| C1=NCCNCCN=Cc2ccccc2OCc2cccc(n2)COc2ccccc21 | 6.84 | 54.8 | > 80.7 | > 95.5 | > 75.7 | 21.1 | 99.7 | > 100 | 37.5 | > 54.1 | 99.8 | > 39.7 | > 64.3 |
| COc1ccc([C@H](NC(=O)c2ccccc2)[C@@H](O)C(=O)O[C@H]2C[C@@]3(O)C(OC(=O)c4ccccc4)C4[C@](C)(C(=O)[C@H](OC(C)=O)C(=C2C)C3(C)C)[C@@H](O)C[C@H]2OC[C@@]42OC(C)=O)cc1 (stereo partly drawn) | 0.0279 | – | > 10 | > 10 | > 10 | > 10 | > 10 | > 10 | > 10 | > 10 | > 10 | – | > 10 |
